Each structure is given as a SMILES string. Some results are limits rather than exact numbers.

In assay [1] the target is Cyclin-dependent kinase 9 (Homo sapiens, UniProt P50750). In words: Inhibition of CDK9 (unknown origin) preincubated for 20 mins followed by [gamma-33P]ATP addition measured after 120 mins in presence of ATP by Hot-SpotSM kinase assay.
Assay [2] concerns U-937. In words: Antiproliferative activity against human U-937 cells incubated for 72 hrs by CCK8 assay. The note with it: U-937, 72 h. Format: functional, cell-based. On the technique in general: Tetrazolium dyes change colour on reduction, which living cells bring about.
Assay [3] relates to HL-60. In words: Antiproliferative activity against human HL-60 cells incubated for 72 hrs by CCK8 assay. The note with it: HL-60, 72 h. Format: functional, cell-based.
Assay [4] is described as follows: Antiproliferative activity against human SKNO-1 cells incubated for 72 hrs by CCK8 assay. The assay is classed as functional, cell-based. The note with it: SKNO-1, 72 h.
The subject of assay [5] is Kasumi 1. In words: Antiproliferative activity against human Kasumi 1 cells incubated for 72 hrs by CCK8 assay. Format: functional, cell-based. The conditions noted are these: Kasumi 1, 72 h.
The target in assay [6] is Histone deacetylase. Nature of the assay: Inhibition of HDAC in human nuclear extract using Ac-Arg-Gly-Lys(Ac)-AMC as substrate incubated overnight by fluorescence based assay. Format: subcellular, Nucleus. The conditions noted are these: hela.

Cyclin-dependent kinase 9, sequence (P50750 whole entry): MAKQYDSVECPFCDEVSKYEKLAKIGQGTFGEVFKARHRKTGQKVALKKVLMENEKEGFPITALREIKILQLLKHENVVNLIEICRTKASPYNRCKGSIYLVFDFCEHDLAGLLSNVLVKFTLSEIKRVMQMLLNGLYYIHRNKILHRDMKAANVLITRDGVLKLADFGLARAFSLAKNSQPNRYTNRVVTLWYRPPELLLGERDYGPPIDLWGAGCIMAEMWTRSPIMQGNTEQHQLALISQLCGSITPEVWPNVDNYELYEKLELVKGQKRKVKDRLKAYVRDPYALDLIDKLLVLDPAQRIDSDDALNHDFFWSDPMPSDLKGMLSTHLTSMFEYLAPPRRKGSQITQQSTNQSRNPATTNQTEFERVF

As for `Nc1cc(Br)c(Br)cc1NC(=O)c1ccc(NC(=O)c2n[nH]cc2NC(=O)c2c(F)cccc2F)cc1`, the IC50 (as a rule, the concentration at which inhibition is half-maximal) in assay [1] is < 0.1 µM; in assay [2], > 10 µM; in assay [3], > 10 µM; in assay [4], > 10 µM; in assay [5], > 10 µM.

As for `O=C(CCCCCCN1CCC(NC(=O)c2n[nH]cc2NC(=O)c2c(Cl)cccc2Cl)CC1)NO`, the IC50 was < 0.1 µM in assay [1]; < 1 µM in assay [6]; 0.47 µM in assay [2]; 1.09 µM in assay [3]; 3.09 µM in assay [4]; 6.41 µM in assay [5].

In the case of `O=C(CCCCNC(=O)c1ccc(NC(=O)c2n[nH]cc2NC(=O)c2c(Cl)cccc2Cl)cc1)NO`, the IC50 is < 0.1 µM in assay [1]; 8.52 µM in assay [2]; > 10 µM in assay [3]; > 10 µM in assay [4]; > 10 µM in assay [5].

`O=C(CCCN1CCC(NC(=O)c2n[nH]cc2NC(=O)c2c(F)cccc2F)CC1)NO`: the IC50 was < 0.1 µM in assay [1]; > 10 µM in assay [2]; 2.55 µM in assay [3]; 6.31 µM in assay [4]; > 10 µM in assay [5].

In the case of `O=C(CCCCCNC(=O)c1ccc(NC(=O)c2n[nH]cc2NC(=O)c2c(Cl)cccc2Cl)cc1)NO`, the IC50 in assay [1] was < 0.1 µM; in assay [2], > 10 µM; in assay [3], > 10 µM; in assay [4] it was > 10 µM; in assay [5], > 10 µM.

As to `O=C(CCCCNC(=O)c1ccc(NC(=O)c2n[nH]cc2NC(=O)c2c(F)cccc2F)cc1)NO`, the IC50 in assay [1] is < 0.1 µM; in assay [2], > 10 µM; in assay [3], > 10 µM; in assay [4], > 10 µM; in assay [5], > 10 µM.

In the case of `O=C(CCCN1CCC(NC(=O)c2n[nH]cc2NC(=O)c2c(Cl)cccc2Cl)CC1)NO`, the IC50 is < 0.1 µM in assay [1]; 1.61 µM in assay [2]; 1.24 µM in assay [3]; 2.23 µM in assay [4]; 3.52 µM in assay [5].

Regarding `O=C(CCCCCNC(=O)c1n[nH]cc1NC(=O)c1c(Cl)cccc1Cl)NO`, the 50% inhibitory concentration (IC50) is < 0.1 µM in assay [1]; > 10 µM in assay [2]; > 10 µM in assay [3]; > 10 µM in assay [4]; > 10 µM in assay [5].

On to `Cc1cc(N)c(NC(=O)c2ccc(NC(=O)c3n[nH]cc3NC(=O)c3c(Cl)cccc3Cl)cc2)cc1C`, for which the IC50 was < 0.1 µM in assay [1]; 1.14 µM in assay [2]; 1.02 µM in assay [3]; 2.56 µM in assay [4]; 0.93 µM in assay [5].

Regarding `O=C(CCNC(=O)c1ccc(NC(=O)c2n[nH]cc2NC(=O)c2c(Cl)cccc2Cl)cc1)NO`, the IC50 in assay [1] was < 0.1 µM; in assay [2], > 10 µM; in assay [3] it was > 10 µM; in assay [4], > 10 µM; in assay [5], > 10 µM.

Consider `Nc1cc(Cl)c(Cl)cc1NC(=O)c1ccc(NC(=O)c2n[nH]cc2NC(=O)c2c(Cl)cccc2Cl)cc1`, for which the IC50 in assay [1] was < 0.1 µM; in assay [2], 5.92 µM; in assay [3], 9.76 µM; in assay [4] it was 5.54 µM; in assay [5], 8.42 µM.

Turning to `O=C(CCCCN1CCC(NC(=O)c2n[nH]cc2NC(=O)c2c(Cl)cccc2Cl)CC1)NO`, the IC50 is < 0.1 µM in assay [1]; 1.83 µM in assay [2]; 1.1 µM in assay [3]; 2.32 µM in assay [4]; 3.72 µM in assay [5].

Turning to `O=C(CCNC(=O)c1ccc(NC(=O)c2n[nH]cc2NC(=O)c2c(F)cccc2F)cc1)NO`, the IC50 is < 0.1 µM in assay [1]; > 10 µM in assay [2]; > 10 µM in assay [3]; 5.97 µM in assay [4]; 8.81 µM in assay [5].

With `O=C(Nc1ccccc1)c1ccc(NC(=O)c2n[nH]cc2NC(=O)c2c(Cl)cccc2Cl)cc1`, the IC50 in assay [1] is < 0.1 µM; in assay [2], 4.68 µM; in assay [3], 5.84 µM; in assay [4] it was 3.27 µM; in assay [5], 3.83 µM.

In the case of `O=C(CCCCCCN1CCC(NC(=O)c2n[nH]cc2NC(=O)c2c(F)cccc2F)CC1)NO`, the 50% inhibitory concentration (IC50) in assay [1] is < 0.1 µM; in assay [2], 1.44 µM; in assay [3], 1.01 µM; in assay [4] it was 1.08 µM; in assay [5], 1.96 µM.

Turning to `O=C(CCCCCN1CCC(NC(=O)c2n[nH]cc2NC(=O)c2c(F)cccc2F)CC1)NO`, the half-maximal inhibitory concentration (IC50) was < 0.1 µM in assay [1]; > 10 µM in assay [2]; 1.81 µM in assay [3]; > 10 µM in assay [4]; > 10 µM in assay [5].

Consider `Cc1cc(N)c(NC(=O)c2ccc(NC(=O)c3n[nH]cc3NC(=O)c3c(F)cccc3F)cc2)cc1C`, for which the IC50 in assay [1] was < 0.1 µM; in assay [2], > 10 µM; in assay [3], > 10 µM; in assay [4], 6.89 µM; in assay [5] it was > 10 µM.

Turning to `O=C(CCCCNC(=O)c1n[nH]cc1NC(=O)c1c(Cl)cccc1Cl)NO`, the concentration for half-maximal inhibition (IC50) in assay [1] was < 0.1 µM; in assay [2] it was > 10 µM; in assay [3], > 10 µM; in assay [4] it was > 10 µM; in assay [5], > 10 µM.

Turning to `Nc1cc(Cl)c(Cl)cc1NC(=O)c1ccc(NC(=O)c2n[nH]cc2NC(=O)c2c(F)cccc2F)cc1`, the half-inhibitory concentration (IC50) in assay [1] is < 0.1 µM; in assay [2], 6.8 µM; in assay [3] it was > 10 µM; in assay [4] it was 7.28 µM; in assay [5], 7.79 µM.

Consider `O=C(CCN1CCC(NC(=O)c2n[nH]cc2NC(=O)c2c(F)cccc2F)CC1)NO`, for which the IC50 in assay [1] is < 0.1 µM; in assay [2], > 10 µM; in assay [3], 4.45 µM; in assay [4], 9.28 µM; in assay [5], 4.8 µM.

Regarding `O=C(CCCCN1CCC(NC(=O)c2n[nH]cc2NC(=O)c2c(F)cccc2F)CC1)NO`, the IC50 in assay [1] is < 0.1 µM; in assay [2], 7.34 µM; in assay [3], 1.77 µM; in assay [4], 6.53 µM; in assay [5], 6.44 µM.

As for `O=C(CNC(=O)c1ccc(NC(=O)c2n[nH]cc2NC(=O)c2c(F)cccc2F)cc1)NO`, the IC50 is < 0.1 µM in assay [1]; > 10 µM in assay [2]; > 10 µM in assay [3]; > 10 µM in assay [4]; > 10 µM in assay [5].

`O=C(CCCNC(=O)c1ccc(NC(=O)c2n[nH]cc2NC(=O)c2c(F)cccc2F)cc1)NO`: the concentration for half-maximal inhibition (IC50) in assay [1] was < 0.1 µM; in assay [2], > 10 µM; in assay [3] it was > 10 µM; in assay [4], > 10 µM; in assay [5], 5.6 µM.

On to `O=C(CCCNC(=O)c1n[nH]cc1NC(=O)c1c(Cl)cccc1Cl)NO`, for which the IC50 in assay [1] was < 0.1 µM; in assay [2] it was > 10 µM; in assay [3], > 10 µM; in assay [4], > 10 µM; in assay [5] it was > 10 µM.

Take `O=C(CCCCCNC(=O)c1ccc(NC(=O)c2n[nH]cc2NC(=O)c2c(F)cccc2F)cc1)NO`: the IC50 in assay [1] is < 0.1 µM; in assay [2], > 10 µM; in assay [3] it was > 10 µM; in assay [4], > 10 µM; in assay [5] it was > 10 µM.

As to `O=C(CN1CCC(NC(=O)c2n[nH]cc2NC(=O)c2c(Cl)cccc2Cl)CC1)NO`, the IC50 in assay [1] is < 0.1 µM; in assay [2], 0.94 µM; in assay [3], 1.16 µM; in assay [4], 1.54 µM; in assay [5], 1.54 µM.

Regarding `O=C(CCN1CCC(NC(=O)c2n[nH]cc2NC(=O)c2c(Cl)cccc2Cl)CC1)NO`, the IC50 was < 0.1 µM in assay [1]; 0.91 µM in assay [2]; 1.54 µM in assay [3]; 1.67 µM in assay [4]; 1.38 µM in assay [5].

`Nc1ccccc1NC(=O)c1ccc(NC(=O)c2n[nH]cc2NC(=O)c2c(F)cccc2F)cc1`: the IC50 in assay [1] is < 0.1 µM; in assay [2] it was 5.6 µM; in assay [3] it was > 10 µM; in assay [4] it was 2.65 µM; in assay [5] it was 3.1 µM.

As to `O=C(CCCNC(=O)c1ccc(NC(=O)c2n[nH]cc2NC(=O)c2c(Cl)cccc2Cl)cc1)NO`, the IC50 in assay [1] is < 0.1 µM; in assay [2] it was > 10 µM; in assay [3], > 10 µM; in assay [4], > 10 µM; in assay [5] it was > 10 µM.

Regarding `Nc1cc(Br)c(Br)cc1NC(=O)c1ccc(NC(=O)c2n[nH]cc2NC(=O)c2c(Cl)cccc2Cl)cc1`, the IC50 was < 0.1 µM in assay [1]; 9.13 µM in assay [2]; 6.86 µM in assay [3]; 4.56 µM in assay [4]; 6.92 µM in assay [5].

As to `O=C(CCCCCN1CCC(NC(=O)c2n[nH]cc2NC(=O)c2c(Cl)cccc2Cl)CC1)NO`, the IC50 in assay [1] is < 0.1 µM; in assay [2] it was 1.84 µM; in assay [3] it was 1.75 µM; in assay [4], 3.02 µM; in assay [5] it was 6.19 µM.

On to `O=C(CNC(=O)c1n[nH]cc1NC(=O)c1c(Cl)cccc1Cl)NO`, for which the IC50 in assay [1] was < 0.1 µM; in assay [2] it was > 10 µM; in assay [3], > 10 µM; in assay [4], > 10 µM; in assay [5], > 10 µM.

For the compound `O=C(CCNC(=O)c1n[nH]cc1NC(=O)c1c(Cl)cccc1Cl)NO`, the IC50 in assay [1] was < 0.1 µM; in assay [2], > 10 µM; in assay [3] it was 10 µM; in assay [4], > 10 µM; in assay [5] it was 3.87 µM.

The values above are taken from ChEMBL document CHEMBL5346903, “Discovery of novel and bioavailable histone deacetylases and cyclin-dependent kinases dual inhibitor to impair the stemness of leukemia cells” (Eur J Med Chem, 2023).
